Laboratory results reported in patent publication US20200361919A1, “DEUTERATED INDOLEAMINE 2,3-DIOXYGENASE INHIBITOR AND APPLICATION THEREOF” (NANJING TRANSTHERA BIOSCIENCES CO. LTD., priority 2017, published 2020).
pIC50: −log10 of the molar value. Like-named read-outs stand apart in the source and are kept apart here.

Tests used:
IDO-1 = molecular target: T1, IDO-1 (Homo sapiens, UniProt P14902); test: Enzymatic assay, IDO-1; assay type: biochemical
T1 construct: made in house
Procedure: (§1) Test substance: Compound 1 of the present invention, prepared according to the method of Example 1 or the Step 3 of Example 5
(§2) I. Experimental materials and instruments
(§3) Preparation of compound: The compound was made up into 1 mM compound mother liquor with DMSO, and then the compound was diluted 3.16 times with DMSO to obtain 10 concentration gradients (100×) of the compound of the diluted mother liquors..
(§4) Medication and incubation: 10 μL of 100× compound of the diluted mother liquors were added into a 96-well plate, to which was added 10 μL of enzyme solution (IDO-1 or TDO), centrifuged at 2000 rpm for 1 minute, and incubated at room temperature for 30 minutes. 4% DMSO enzyme-free solution was used as a negative control, and 4% DMSO enzyme-containing solution was used as a positive control. 20 μL of substrate mixture (L-tryptophan, ascorbate, methylene blue, catalase) was added and incubated for 1 hour at room temperature, then 20 μL of stop solution was added to the experimental plate to terminate the reaction. After shaking and mixing, incubation was carried out at 60° C. for 30 minutes. […]
(§5) Detection: A microplate reader was used to detect the absorbance value at 492 nm.
(§6) Calculation: The inhibition rate was calculated according to the following formula, using the Spectramax program to fit the curve slope, and using GraphPad Prism5.0 to fit the IC50: […]

CT26 cells = test: In vivo pharmacodynamics, subcutaneous homograft model with colon cancer cell CT26 in mouse; design: species or system Balb/C mice; conditions: 150 mg/kg PO Bid 10 days, CT26 tumor-bearing mice
Procedure: Test substance: Compound 1 of the present invention, which structure was shown in the foregoing.
CT26 cells were cultured in RPMI1640 medium containing 10% fetal bovine serum. CT26 cells in exponential growth phase were collected, and resuspended in PBS to a suitable concentration for subcutaneous tumor inoculation in mice.
0.1 mL of cell suspension (cells suspended in PBS) containing about 5×10^5 CT26 cells was subcutaneously inoculated into the skin of the right back of female Balb/C mice. The mice were grouped and administrated when the average tumor volume reached about 100 mm^3. Grouping method: weighing animals before administration, and measuring tumor volume. According to tumor volume, the mice were grouped using block design, 9 mice in each group.
Administration was performed according to Table 7 below.
The animals' health and death were monitored daily, their body weights and tumor volumes were measured twice a week, and samples were collected after the last dose. The curative effect of tumor volume was evaluated by TGI%, wherein relative tumor suppression rate TGI (%) was: TGI=1-T/C (%). T/C% was the relative tumor increment rate, that is, the percentage of tumor volume in the treatment group relative to that of the control group at a specific time point. […]

TDO = molecular target: T2, TDO (Homo sapiens, UniProt P48775); test: Enzymatic assay, TDO; assay type: biochemical
T2 construct: made in house
Procedure: as §1, §2, §3, §4, §5, §6

Hela cells = test: Cytological evaluation in rhIFN-γ stimulated Hela cells; assay type: cell-based; conditions: rhIFN-γ 50 ng/ml, read-out: Hela Cell IC50
Procedure: Test substances: Compounds 1-3 of the present invention, prepared as described in the previous specific Examples.
Hela cell line (Cell Bank, Chinese Academy of Sciences)
Recombinant human IFN-γ (rhIFN-γ, purchased from R&D Systems, Cat. No. 285-IF-100)
Cell plating: Hela cell suspension was prepared with fresh phenol red-free DMEM medium, and 20,000 cells/well were added to a 96-well cell culture plate, and cultured in 5% carbon dioxide at 37° C. overnight.
Preparation of compounds: the compounds were made up into 0.5 mM solution with DMSO, and the compounds were diluted 3.16 times with DMSO to obtain 8 compound mother liquors of concentration gradients (500×), and diluted with cell culture medium to prepare 10× dilutions.
Medication and incubation: After the cells were seeded and cultured overnight, 10 μL of a compound of the corresponding diluted mother liquor (10×) was added to each well and incubated for 1 hour, then 10 μL of 500 ng/ml rhIFN-γ was added, the final volume of each well was 100 μL. The negative control wells contained 100 μL of 0.5% DMSO cell culture medium and Hela cells. The positive control wells were the wells where rhIFN-γ at a final concentration of 50 ng/ml was added to the negative control wells, and the background control wells contained 100 μL of cell culture medium. After incubation in a 37 ° C. incubator for 24 hours. the cell morphology was observed under an inverted microscope.
Detection: After the cell plate was centrifuged, 80 μL of the supernatant was taken and added to a Corning 96-well plate, 10 μL of trichloroacetic acid was added to each well, shaken, placed in a 60 ° C. incubator for 30 minutes, and centrifuged at 2500 rpm for 5 minutes. 45 μL of the supernatant was taken and transferred to a new plate, 45 μL of chromogenic solution was added, shaken to make the reaction uniform. After incubating at room temperature for 15 minutes, the absorbance at 492 nm wavelength was read.

[1] = Evaluation of pharmacokinetics in mice; assay type: in vivo, C57BL/6 female mice; conditions: for Cl_obs / Vz_obs / tz 1/2 / AUC(0-t) / AUC(0-inf): IV 5 mg/kg, C57BL/6 female mice, mean; for AUC(0-t) / AUC(0-inf): mouse, plasma; for AUC(0-inf): read-out: AUCINF_obs
Procedure: Test substance: Compound 1 of the present invention,prepared according to the method of Example 1 or Step 3 of Example 5;
Compound R, prepared as described in Example 8.
Animal: C57BL/6 female mice
The Compound 1 used in the test was dissolved in 10% DMA+10% (30% solutol)+80% saline to prepare a solution, and the non-deuterated compound was dissolved in 10% DMA+10% PEG+80% saline to prepare a solution. C57BL/6 female mice were administered intravenously with Compound 1 at a dose of 5.0 mg/kg. The time points for blood sampling were: 5 min, 15 min, 30 min, 1 h, 2 h, 4 h, 6 h, 8 h, and 24 h. About 100 μL of blood was collected from the venous plexus, and the blood sample was placed in an anti-coagulation tube containing EDTA-K2. The blood sample was centrifuged at 8000 rpm for 6 minutes at 4° C. to obtain a plasma sample, wherein the plasma must be prepared within 30 minutes after blood sampling, and stored in −80° C. refrigerator before plasma testing.
The sample (−80° C.) to be tested was taken out from the refrigerator, melted at room temperature and vortexed for 5 minutes; 10 μL of plasma samples of 3 different individuals were precisely pipetted into 1.5 mL centrifuge tubes (for standard curve of plasma, 30 μL); 200 μL of 100 ng/mL internal standard working solution was added, and mixed well; vortexed for 5 min, then centrifuged for 5 min (12000 rpm); precisely pipetted 50 μL of supernatant into a 96-well plate to which was added 150 μL/well of water in advance; vortexed and mixed for 5 min. The injection volume was 15 μL, and LC-MS/MS measurement was carried out.
The concentrations of test substance were used from the analysis results of AB Analyst 1.6.3. Microsoft Excel was used to calculate the parameters such as mean, standard deviation, and coefficient of variation (those directly output from Analyst 1.6.3 were not calculated). The PK parameters were calculated using Pharsight Phoenix 6.1 software NCA.

[2] = Stability test of Crystalline Form B; assay type: physicochemical
From the text: Method: Crystalline Form B was left open for 10 days at high temperature and in high humidity conditions. The properties, measured content and impurities of the Crystalline Form B were observed, and the XRPD patterns were compared to obtain the data in Table 6.

[3] = Stability test of Crystalline Form A; assay type: physicochemical
From the text: Method: Crystalline Form A was left open at high temperature and in high humidity conditions, and XRPD patterns were compared to […]. The data in Table 5 below were obtained.

[4] = IV 5 mg/kg mice, compared with Compound R
[5] = High temperature, 60° C., left open, 10 days

T1 sequence (P14902 whole entry, species assumed): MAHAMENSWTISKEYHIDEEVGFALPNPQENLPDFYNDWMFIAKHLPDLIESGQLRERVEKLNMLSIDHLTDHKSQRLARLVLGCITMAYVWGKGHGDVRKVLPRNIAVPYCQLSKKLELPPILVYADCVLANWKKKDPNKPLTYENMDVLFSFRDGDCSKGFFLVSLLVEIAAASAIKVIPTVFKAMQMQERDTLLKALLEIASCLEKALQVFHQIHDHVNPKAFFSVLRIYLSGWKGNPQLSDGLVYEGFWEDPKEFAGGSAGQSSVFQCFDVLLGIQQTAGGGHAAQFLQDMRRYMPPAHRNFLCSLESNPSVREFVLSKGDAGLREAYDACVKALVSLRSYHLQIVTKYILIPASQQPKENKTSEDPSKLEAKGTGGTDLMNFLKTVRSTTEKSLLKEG
T2 sequence (P48775 whole entry, species assumed): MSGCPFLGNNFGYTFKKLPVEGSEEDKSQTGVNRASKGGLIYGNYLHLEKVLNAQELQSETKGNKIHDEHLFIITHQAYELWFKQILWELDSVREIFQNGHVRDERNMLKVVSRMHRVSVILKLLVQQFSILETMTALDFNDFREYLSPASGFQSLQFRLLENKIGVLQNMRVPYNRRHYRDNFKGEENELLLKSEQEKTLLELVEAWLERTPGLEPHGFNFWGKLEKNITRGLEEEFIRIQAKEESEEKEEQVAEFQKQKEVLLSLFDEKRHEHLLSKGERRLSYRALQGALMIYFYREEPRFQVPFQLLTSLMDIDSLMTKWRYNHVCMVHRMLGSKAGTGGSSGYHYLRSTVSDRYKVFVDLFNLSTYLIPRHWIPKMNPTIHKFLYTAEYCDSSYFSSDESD

[2H]C1([2H])CC(Nc2nonc2C(=NO)Nc2ccc(F)c(Br)c2)CC([2H])([2H])S1(=O)=O [Compound 1, N-(3-bromo-4-fluorophenyl)-4-((1,1-dioxotetrahydro-2H-thian-4-yl-2,2,6,6-d4)amino)-N′-hydroxy-1,2,5-oxadiazole-3-carboxamidine]
pIC50 (IDO-1): 7.07
TGI (tumor volume inhibition rate) (CT26 cells): 38%
Tumor volume (CT26 cells): 414.32 ± 52.44 mm^3
pIC50 (TDO): 5.30
pIC50 (Hela cells; 24 hours): 7.00
clearance rate (in words) [1, 4]: lower
exposure amount (in words) [1, 4]: higher
Cl_obs [1]: 36.5 mL/min/kg
Vz_obs [1]: 11.7 L/kg
tz 1/2 [1]: 3.70 h
AUC(0-t) [1]: 2040 ng·h/mL
AUC(0-inf) [1]: 2290 ng·h/mL

O=S1(=O)CCC(Nc2nonc2C(=NO)Nc2ccc(F)c(Br)c2)CC1 [Compound R, N-(3-bromo-4-fluorophenyl)-4-((1,1-dioxotetrahydro-2H-thian-4-yl)amino)-N′-hydroxy-1,2,5-oxadiazole-3-carboxamidine, reference compound]
Cl_obs [1]: 73.2 mL/min/kg
Vz_obs [1]: 12 L/kg
tz 1/2 [1]: 1.81 h
AUC(0-t) [1]: 1120 ng·h/mL
AUC(0-inf) [1]: 1140 ng·h/mL

[2H]C1([2H])CC(Nc2nonc2C(=NO)Nc2ccc(F)c(Br)c2)CC([2H])([2H])S1(=O)=O [Crystal Form B of Compound 1]
pIC50 (Hela cells; 24 hours): 7.52
Content, % ([2]; 0-Day): 99.6%
Impurity, % ([2]; 0-Day): 0.17%
Properties ([2]; 0-Day): Off-white
XRPD ([2]; 0-Day): Crystal Form B,
Content, % [2, 5]: 99.4%
Impurity, % [2, 5]: 0.16%
Properties [2, 5]: Off-white
Content, % ([2]; RH 92.5%, left open, 10 days): 99.3%
Impurity, % ([2]; RH 92.5%, left open, 10 days): 0.15%
Properties ([2]; RH 92.5%, left open, 10 days): Off-white

[2H]C1([2H])CC(Nc2nonc2C(=NO)Nc2ccc(F)c(Br)c2)C([2H])([2H])S1(=O)=O (stereo not drawn) [Compound 2, N-(3-bromo-4-fluorophenyl)-4-((1,1-dioxotetrahydro-thiophen-3-yl-2,2,5,5-d4)amino)-N-hydroxy-1,2,5-oxadiazole-3-carboxamidine]
pIC50 (Hela cells; Homo sapiens, HeLa, 24 h): 7.30

[2H]C1([2H])C(Nc2nonc2C(=NO)Nc2ccc(F)c(Br)c2)C([2H])([2H])S1(=O)=O [Compound 3, N-(3-bromo-4-fluorophenyl)-4-((1,1-dioxothiacyclobutan-3-yl-2,2,4,4-d4)amino)-N′-hydroxy-1,2,5-oxadiazole-3-carboxamidine]
pIC50 (Hela cells; Homo sapiens, HeLa, 24 h): 7.30

[2H]C1([2H])CC(Nc2nonc2C(=NO)Nc2ccc(F)c(Br)c2)CC([2H])([2H])S1(=O)=O [Crystal Form A of Compound 1]
Impurity, % ([3]; 0-Day): 0.74%
XRPD ([3]; 0-Day): Crystal Form A, FIG. 1
XRPD ([3]; High temperature, 105° C., left open, 3 days): Consistent with the 0-day XRPD
XRPD ([3]; RH 92.5%, left open, 3 days): Consistent with the 0-day XRPD
Impurity, % ([3]; RH 92.5%, left open, 10 days): 0.99%
pIC50 (Hela cells; 24 hours): 7.40
